Source: DBAASP
Converted amounts (≈) assume the structure as drawn. Blank lines part the entries; values can stand above or below the compound they belong to.

Key:
Assay in all cases: ≥ marks a high value that may be exact or a test limit, other limits are often not marked, values filed in µg/mL are converted to µM
[1] = tested on: Campylobacter jejuni KCTC 5327
[2] = tested on: Listeria monocytogenes KCCM 40307
[3] = tested on: Listeria monocytogenes KCCM 43155
[4] = tested on: Listeria monocytogenes KCTC 3710
[5] = tested on: Salmonella enterica subsp. enterica serovar Typhimurium ATCC 14028
[6] = tested on: Salmonella typhimurium CCARM 8009
[7] = tested on: Salmonella typhimurium CCARM 8013
[8] = tested on: Streptococcus suis KCTC 3557
[9] = tested on: Acinetobacter baumannii 7226/16
[10] = tested on: Escherichia coli ESBL 521/17
Escherichia coli ML-35p = tested on: Escherichia coli ML-35p
[11] = tested on: Klebsiella pneumoniae ESBL 344/17
[12] = tested on: Pseudomonas aeruginosa 522/17
[13] = tested on: Staphylococcus aureus 1399/17
[14] = tested on: Staphylococcus aureus ATCC 33591
[15] = tested on: Staphylococcus aureus SG511
[16] = tested on: Bacillus subtilis ATCC 6633
[17] = tested on: Corynebacterium xerosis C875
[18] = tested on: Enterococcus faecalis ATCC 29212
[19] = tested on: Escherichia coli ATCC 25922
Escherichia coli BL21 = tested on: Escherichia coli BL21
Escherichia coli DC2 = tested on: Escherichia coli DC2
Escherichia coli K-12 = tested on: Escherichia coli K-12
Escherichia coli UB1005 = tested on: Escherichia coli UB1005
[20] = tested on: Pseudomonas aeruginosa ATCC 27853
[21] = tested on: Pseudomonas aeruginosa PA214
[22] = tested on: Pseudomonas aeruginosa PA330
[23] = tested on: Pseudomonas aeruginosa PAO1
[24] = tested on: Staphylococcus aureus ATCC 25923
[25] = tested on: Staphylococcus epidermidis C621
[26] = tested on: Staphylococcus aureus ATCC 29313
[27] = tested on: Xanthomonas axonopodis pv. citri

MIC [1]: 2 µM (≈ 5.74 µg/mL)
MIC [2]: 2 µM (≈ 5.74 µg/mL)
MIC [3]: 2 µM (≈ 5.74 µg/mL)
MIC [4]: 2 µM (≈ 5.74 µg/mL)
MIC [5]: 4 µM (≈ 11.5 µg/mL)
MIC [6]: 4 µM (≈ 11.5 µg/mL)
MIC [7]: 4 µM (≈ 11.5 µg/mL)
MIC [8]: 2 µM (≈ 5.74 µg/mL)
SMILES: CC(C)C[C@H](NC(=O)[C@H](CO)NC(=O)[C@H](CC(C)C)NC(=O)[C@H](CC(C)C)NC(=O)[C@H](CO)NC(=O)CNC(=O)[C@H](Cc1ccccc1)NC(=O)[C@@H](N)Cc1ccccc1)C(=O)NCC(=O)N[C@@H](CO)C(=O)N[C@@H](CCCCN)C(=O)N[C@@H](CC(C)C)C(=O)N[C@@H](CC(C)C)C(=O)N1CCC[C@H]1C(=O)N[C@@H](CO)C(=O)N[C@H](C(=O)N[C@@H](Cc1ccccc1)C(=O)N[C@@H](CCCCN)C(=O)N[C@@H](CC(C)C)C(=O)N[C@@H](Cc1ccccc1)C(=O)N[C@@H](CCC(N)=O)C(=O)N[C@@H](CCCN=C(N)N)C(=O)N[C@@H](CCCCN)C(=O)N[C@@H](CCCCN)C(=O)N[C@@H](CCC(=O)O)C(N)=O)C(C)C [FFGSLLSLGSKLLPSVFKLFQRKKE]

MIC [9]: 5.66 µM (≈ 19.1 µg/mL)
MIC [10]: 4 µM (≈ 13.5 µg/mL)
MIC (Escherichia coli ML-35p): 2 µM (≈ 6.75 µg/mL)
MIC [11]: 5.66 µM (≈ 19.1 µg/mL)
MIC [12]: ≥ 32 µM
MIC [13]: 11.3 µM (≈ 38.2 µg/mL)
MIC [14]: ≥ 32 µM
MIC [15]: 0.5 µM (≈ 1.69 µg/mL)
SMILES: CC[C@H](C)[C@H](NC(=O)[C@H](CCCN=C(N)N)NC(=O)[C@@H](NC(=O)[C@@H]1CCCN1C(=O)[C@@H]1CCCN1C(=O)[C@H](CCCN=C(N)N)NC(=O)[C@H](CCCN=C(N)N)NC(=O)[C@H](Cc1ccccc1)NC(=O)[C@@H]1CCCN1C(=O)[C@H](CC(C)C)NC(=O)[C@H](CCCN=C(N)N)NC(=O)[C@H](Cc1ccccc1)NC(=O)[C@@H](N)CCCN=C(N)N)[C@@H](C)CC)C(=O)N[C@@H](Cc1cnc[nH]1)C(=O)N1CCC[C@H]1C(=O)N1CCC[C@H]1C(=O)N1CCC[C@H]1C(=O)N[C@@H](Cc1ccccc1)C(=O)N[C@@H](Cc1ccc(O)cc1)C(=O)N1CCC[C@H]1C(=O)N1CCC[C@H]1C(=O)N[C@@H](Cc1ccccc1)C(=O)N[C@@H](CCCN=C(N)N)C(=O)N[C@@H](CCCN=C(N)N)C(=O)N[C@@H](Cc1ccccc1)C(=O)N[C@@H](CC(C)C)C(=O)O [RFRLPFRRPPIRIHPPPFYPPFRRFL]

MIC [16]: 8 µM (≈ 14.7 µg/mL)
MIC [17]: 0.5 µM (≈ 0.918 µg/mL)
MIC [18]: > 32 µM
MIC [19]: 8 µM (≈ 14.7 µg/mL)
MIC (Escherichia coli BL21): 1.6 µM (≈ 2.94 µg/mL)
MIC (Escherichia coli DC2): 0.5 µM (≈ 0.918 µg/mL)
MIC (Escherichia coli K-12): 1.6 µM (≈ 2.94 µg/mL)
MIC (Escherichia coli UB1005): 1 µM (≈ 1.84 µg/mL)
MIC [20]: 16 µM (≈ 29.4 µg/mL)
MIC [21]: 3.1 µM (≈ 5.69 µg/mL)
MIC [22]: 17.7 µM (≈ 32.4 µg/mL)
MIC [23]: 12.5 µM (≈ 22.9 µg/mL)
MIC [24]: > 32 µM
MIC [25]: 4 µM (≈ 7.34 µg/mL)
SMILES: C[C@H](NC(=O)[C@H](C)NC(=O)[C@H](Cc1ccccc1)NC(=O)[C@H](C)NC(=O)[C@H](C)NC(=O)[C@H](Cc1c[nH]c2ccccc12)NC(=O)[C@H](C)NC(=O)[C@H](C)NC(=O)[C@H](Cc1ccccc1)NC(=O)[C@H](C)NC(=O)[C@H](C)NC(=O)[C@H](CCCCN)NC(=O)[C@H](CCCCN)NC(=O)[C@H](CCCCN)NC(=O)[C@H](CCCCN)NC(=O)[C@H](CCCCN)NC(=O)[C@@H](N)CCCCN)C(N)=O [KKKKKKAAFAAWAAFAA]

MIC [19]: > 156 µM
MIC [20]: > 156 µM
MIC [27]: ≥ 156 µM
SMILES: CC(C)C[C@H](NC(=O)[C@H](C)NC(=O)[C@@H](NC(=O)[C@@H](N)CCCCN)C(C)C)C(=O)NCC(=O)N[C@H](C(=O)N[C@@H](C)C(=O)N[C@@H](CCC(N)=O)C(=O)N[C@@H](CC(N)=O)C(=O)N[C@@H](Cc1ccc(O)cc1)C(=O)N[C@@H](CC(C)C)C(=O)N[C@@H](CC(N)=O)C(=O)N1CCC[C@H]1C(=O)N[C@@H](CCC(N)=O)C(=O)N[C@@H](CCC(N)=O)C(=O)O)C(C)C [KVALGVAQNYLNPQQ]
MIC [26]: ≥ 156 µM
